Measured values published in US5707821A, “Identification of phospholipase A2 inhibitors in Aβ peptide-mediated neurodegenerative disease” (priority 1995, dated 1998).

What was measured:
human cortical neurons [1] = assay: Aβ neurotoxicity in human cortical neurons (alamarBlue), 2 h pretreatment with inhibitor; format: cell-based; settings: 50 μM Aβ1-40, compound 390 nM to 100 μM, 2 h pretreatment and re-added with Aβ, 3 days, n=3; for Emax: Homo sapiens, Cortical neurone, 72 h, read-out: Max Inh
Protocol: (§1) Cultures of human cortical or hippocampal neurons were prepared using a modification of the procedure described in P. Seubert et al. (1992), Nature 359:325-327. Cortical or hippocampal tissue was dissociated by incubation in a trypsin/EDTA solution (0.05% trypsin +0.53 mM EDTA in HBSS; Gibco) for 20 minutes at 37° C. The trypsin was then inactivated by resuspending the cells in serum-containing medium (MEM/FBS): Modified Eagle's Medium (MEM) containing 1% glucose, 1 mM sodium pyruvate, 1 mM glutamine, and supplemented with 10% fetal bovine serum (Gibco). Cells were then pelleted by centrifugation and resuspended in a chemically-defined medium (MEM/B27): MEM containing B27 supplement (Gibco) in place of FBS. Polyethyleneimine (PEI)-coated 6.4-mm (96-well) dishes were rinsed once with MEM/FBS, and then seeded at 0.75-1.25×10^5 cells per well in 0.1 ml MEM/B27. Cultures were maintained in a H2 O-saturated incubator with an atmosphere of 95% air/5% CO2 at 37° C. The culture medium was exchanged twice weekly.
Amyloid-β (Aβ) stock solutions were prepared as 1 mM stocks in sterile ddH2 O immediately prior to addition to cultures. Rat cortical neurons were exposed to Aβ by removing the culture medium and replacing it with DMEM/N2 or DMEM/B27 containing Aβ1-40. Human cortical neurons were exposed to Aβ by removing the culture medium and replacing it with MEM, MEM/N2, or MEM/B27 containing Aβ1-40. Cultures were maintained for 2-4 days before neuronal survival was quantified using alamarBlue™.
(§2) The alamarBlue™ assay incorporated a proprietary fluorometric/colorimetric metabolic indicator (Alamar Biosciences, Inc.). Viable cells convert alamarBlue™ from an oxidized (non-fluorescent, blue) form to a reduced (fluorescent, red) form. Assays were performed by replacing the culture media with a 10% alamarBlue™ solution in DMEM (rat cortical cultures) or MEM (human cortical cultures). Reduction of alamarBlue™ was determined spectrofluorometrically using a Millipore Cytofluor 2350 Scanner (excitation, […]; emission, 590 nm) and CytoCalc™ software (Millipore Corporation).
The effect of pretreating human cortical neuron cultures with the benzenesulfonamide PLA2 inhibitors and arachidonyl trifluoromethyl ketone prior to exposure to a neurotoxic concentration of Aβ1-40 was determined.
(§3) Human cortical neurons were treated with 50 μM Aβ1-40 and various inhibitors of PLA2. Compounds were added 2 hours prior to Aβ1-40 treatment at concentrations of 390 nM to 100 μM, and were then re-added at the time of Aβ1-40 treatment. Compounds were also added in an identical manner to neuronal cultures in the absence of Aβ1-40. Neuronal survival was determined after 3 days of treatment by alamarBlue®. IC50 is the dose of compound that inhibited Aβ-mediated neurotoxicity by 50%. […] Data represents the mean ± SD (n=3). ND, not detected at the concentration range used.

Ca^+2 -independent PLA2 = settings: Ackermann et al. (1995); cited from earlier work
cPLA2 = settings: Street et al. (1993); cited from earlier work
human cortical neurons [2] = assay: Compound toxicity to human cortical neurons in absence of Aβ1-40, added as in pretreatment protocol; format: cell-based; settings: no Aβ1-40, 3 days
Protocol: as §1, §2, §3

Molecule: CCCCCCCCCCCC=CC(C)(C)C=CCCCC(=O)O [DEDA, 7,7,-dimethyl-5,8-eicosadienoic acid]
- Emax (human cortical neurons [1]): 19%

Molecule: CCCCCCCCCCCCCCCC(=O)C(F)(F)F [palmitoyl trifluoromethyl ketone]
- inhibition of Ca^+2 -independent PLA2 activity (Ca^+2 -independent PLA2): capable of inhibiting
- inhibition of cPLA2 (cPLA2): capable of inhibiting

Molecule: Oleoyloxyethyl Phosphocholine
- TD10 (concentration giving 10% loss of neuronal survival) (human cortical neurons [2]; n=3): 17 µM
- CC50 (human cortical neurons [2]; n=3, ND = not detected at the concentration range used, read-out: TD50 (concentration giving 50% loss of neuronal survival)): 29 µM
- Max Inh (human cortical neurons [1]): 40%

Molecule: O=C1O/C(=C/Br)CCC1c1cccc2ccccc12 (stereo not shown) [Bromoenol Lactone, (e)-6-(bromomethylene)tetrahydro-3-(1-naphthalenyl)-2H-pyran-2-one]
- Emax (human cortical neurons [1]): 41%
- inhibition of Ca^+2 -independent PLA2 activity (Ca^+2 -independent PLA2): capable of inhibiting
- inhibition of cPLA2 (cPLA2): capable of inhibiting

Molecule: C[C@H]1c2cccc(O)c2C(O)=C2C(=O)[C@]3(O)C(O)=C(C(N)=O)C(=O)[C@@H](N(C)C)[C@@H]3[C@@H](O)[C@@H]21 [Doxycycline]
- Emax (human cortical neurons [1]): 0%
